Values of other authors, collected in patent US20140106406A1, “GENE CLUSTER FOR THE PRODUCTION OF GOUGEROTIN, GOUGEROTIN ANALOGUES, AND PRECURSORS THEREOF” (Bayer Cropscience LP, priority 2012, published 2014).

Experiments:
powdery mildew = settings: against powdery mildew
[1] = test system: parasites on animals, such as pin worm
[2] = test system: gram-positive, gram-negative bacteria and tubercule bacillus

Row | SMILES | antifungal activity (powdery mildew) | parasiticidal action [1] | antibacterial activity [2]
1 | NC(N)=NCC(O)CC(O)(C(=O)O)[C@H]1O[C@@H](n2cc(CO)c(N)nc2=O)C=C[C@@H]1NC(=O)[C@@H](N)CO (stereo partly drawn) [antibiotic B-98891] | antifungal activity | – | –
2 | CNCC(=O)NC(CO)C(=O)NC1C(C(N)=O)OC(n2ccc(N)nc2=O)C(O)C1O (stereo not drawn) [gougerotin] | – | parasiticidal action | weak antibacterial activity
